Assay results published in patent US20240353414A1 (Calico Life Sciences LLC, priority 2021, published 2024).

What was measured:
mitochondrial pH [1] = conditions: BALB/cJ mouse, subcutaneous tumor expressing mito-pH-Countdown, before vs after administration of BAM15
Source text: Left panel: Raw time lapse animation (grayscale) of the back of a BALB/cJ mouse carrying a subcutaneous tumor expressing mito-pH-Countdown, measured in the GFP channel of a simple fluorescence photography system. […] Orange/blue/green box marks a region expressing mito-pH-Countdown. Right panel: Average fluorescent signal vs. time for two measurements before(orange, dots) and two measurements after (blue or green, triangles) administration of the mitochondrial uncoupler BAM15. […] Light gray lines show calibration measurements for pH 7.5 (solid) and pH 8 (dashed).

mitochondrial pH [2] = conditions: same cell type given the same drug in a dish

## Fc1ccccc1Nc1nc2nonc2nc1Nc1ccccc1F [BAM15]
Mitochondrial pH [1]
  drug-induced shift in mitochondrial pH: roughly 0.2 pH units
Mitochondrial pH [2]
  shift in mitochondrial pH: ~1 pH unit
